These results are taken from patent US7812008B2, “9-substituted tetracyclines” (Wyeth LLC, priority 2005, dated 2010).

As a reminder, the MIC is the lowest concentration found to suppress growth. The ED50 is the midpoint of the dose-response relation.

In assay [1] the test system is S. aureus GC6466 (tet(M)). The assay is described as follows: MIC broth microdilution, S. aureus GC6466 (tet(M)). It is filed as cell-based. The following applies: MHBII, 18-22 hours at 35° C. As for the experimental part: (§1) Methods for in Vitro Antibacterial Evaluation
(§2) The minimum inhibitory concentration (MIC)
(§3) Antimicrobial susceptibility testing. The in vitro activities of representative examples of antibiotics of the invention are determined by the broth microdilution method as recommended by the National Committee for Clinical Laboratory Standards (NCCLS) (1). Mueller-Hinton II broth (MHBII)(BBL Cockeysville, Md.) is the medium employed in the testing procedures. Microtiter plates containing serial dilutions of each antimicrobial agent are inoculated with each organism to yield the appropriate density (10^5 CFU/ml) in a 100 μl final volume. The plates are incubated for 18-22 hours at 35° C. in ambient air. […] NCCLS. 2000. Methods for Dilution Antimicrobial Susceptibility Tests for Bacteria That Grow Aerobically; Approved Standards: M7-A5, vol. 20. National Committe for Clinical Laboratory Standards, Wayne, Pa.

In assay [2] the test system is E. coli GC1073 (tet(B)). The assay is described as follows: MIC broth microdilution, E. coli GC1073 (tet(B)). It is filed as cell-based. Particulars: MHBII, 18-22 hours at 35° C. As for the experimental part:
as §1, §2, §3
On the technique in general: In broth dilution the organism is exposed to a series of concentrations in liquid medium.

Assay [3] concerns S. aureus GC4536 (Smith MP -In Vivo). The assay is described as follows: MIC broth microdilution, S. aureus GC4536 (Smith MP -In Vivo). It is filed as cell-based. Particulars: MHBII, 18-22 hours at 35° C. As for the experimental part:
as §1, §2, §3

Assay [4] concerns S. aureus GC1079 (tet(K)). As to the kind of experiment: MIC broth microdilution, S. aureus GC1079 (tet(K)). It is filed as cell-based. The following applies: MHBII, 18-22 hours at 35° C. As for the experimental part:
as §1, §2, §3

The subject of assay [5] is S. aureus GC6467 (tet(M) + (K)). As to the kind of experiment: MIC broth microdilution, S. aureus GC6467 (tet(M) + (K)). It is filed as cell-based. The following applies: MHBII, 18-22 hours at 35° C. As for the experimental part: as §1, §2, §3
For assay [6], the system named is H. influenzae<> GC6896 (ATCC Control). As to the kind of experiment: MIC broth microdilution, H. influenzae GC6896 (ATCC Control). The following applies: 18-22 hours at 35° C. It is filed as cell-based. As for the experimental part: as §1, §2, §3
Assay [7] has as its system S. pyogenes* GC4563 (Clinical). The assay is described as follows: MIC broth microdilution, S. pyogenes GC4563 (Clinical). It is filed as cell-based. Particulars: 18-22 hours at 35° C. How it is done:
as §1, §2, §3

The subject of assay [8] is Staphylococcal aureus Smith M P. As to the kind of experiment: MIC reported in Table 2 beside the in vivo ED50. It is filed as cell-based. Particulars: Staphylococcus aureus, infecting strain S. aureus Smith MP. How it is done: Antimicrobial susceptibility testing. The in vitro activities of representative examples of antibiotics of the invention are determined by the broth microdilution method as recommended by the National Committee for Clinical Laboratory Standards (NCCLS) (1). Mueller-Hinton II broth (MHBII)(BBL Cockeysville, Md.) is the medium employed in the testing procedures. Microtiter plates containing serial dilutions of each antimicrobial agent are inoculated with each organism to yield the appropriate density (10^5 CFU/ml) in a 100 μl final volume. The plates are incubated for 18-22 hours at 35° C. in ambient air. […] NCCLS. 2000. Methods for Dilution Antimicrobial Susceptibility Tests for Bacteria That Grow Aerobically; Approved Standards: M7-A5, vol. 20. National Committe for Clinical Laboratory Standards, Wayne, Pa. In Vivo Antibacterial Evaluation: The therapeutic effects of representative examples of the invention are determined against acute lethal infection with Staphylococcal aureus Smith M P, Female mice, strain CD-1 (Charles River Laboratoties), ca. 20 grams, are challenged by an intraperitoneal injection of sufficient bacteria (suspended in broth or hog mucin) to kill non-treated controls within 24-28 hours. Antibacterial agents, contained in 0.5 ml of 0.2% aqueous agar, are administered subcutaneously or orally 30 minutes after injection. When an oral dosing schedule is used, animal are deprived of food for 5 hours before and 2 hours after injection. Five mice are treated at each dose level. The 7 day survival ratios from 3 separate tests are pooled for calculation of median effective dose (ED50).

Assay [9] deals with E. faecalis GC2267 (tet(L) + (M) + (S)). The assay is described as follows: MIC broth microdilution, E. faecalis GC2267 (tet(L) + (M) + (S)). It is filed as cell-based. Particulars: MHBII, 18-22 hours at 35° C. How it is done: as §1, §2, §3
Assay [10] relates to Staphylococcal aureus Smith M P. The assay is described as follows: In vivo antibacterial evaluation, acute lethal infection in mice. The following applies: Mus musculus; single oral dose 30 minutes after intraperitoneal challenge; female CD-1 mice; 7 day survival ratios, 3 tests pooled; read-out: SOD* ED50. How it is done:
In Vivo Antibacterial Evaluation: The therapeutic effects of representative examples of the invention are determined against acute lethal infection with Staphylococcal aureus Smith M P, Female mice, strain CD-1 (Charles River Laboratoties), ca. 20 grams, are challenged by an intraperitoneal injection of sufficient bacteria (suspended in broth or hog mucin) to kill non-treated controls within 24-28 hours. Antibacterial agents, contained in 0.5 ml of 0.2% aqueous agar, are administered subcutaneously or orally 30 minutes after injection. When an oral dosing schedule is used, animal are deprived of food for 5 hours before and 2 hours after injection. Five mice are treated at each dose level. The 7 day survival ratios from 3 separate tests are pooled for calculation of median effective dose (ED50).

Assay [11] deals with E. faecalis GC2242 (Van-resistant). As to the kind of experiment: MIC broth microdilution, E. faecalis GC2242 (Van-resistant). It is filed as cell-based. Particulars: MHBII, 18-22 hours at 35° C. As for the experimental part: as §1, §2, §3
Assay [12] deals with S. aureus GC2216 (ATCC Control). The assay is described as follows: MIC broth microdilution, S. aureus GC2216 (ATCC Control). It is filed as cell-based. Particulars: MHBII, 18-22 hours at 35° C. How it is done: as §1, §2, §3
Assay [13] has as its system M. catarrhalis* GC6907 (Clinical). The assay is described as follows: MIC broth microdilution, M. catarrhalis GC6907 (Clinical). Particulars: 18-22 hours at 35° C. It is filed as cell-based. As for the experimental part:
as §1, §2, §3

Assay [14] concerns E. coli GC4560 (IMP mutant). As to the kind of experiment: MIC broth microdilution, E. coli GC4560 (IMP mutant). It is filed as cell-based. The following applies: MHBII, 18-22 hours at 35° C. As for the experimental part: as §1, §2, §3
In assay [15] the test system is S. aureus GC1131 (Clinical). As to the kind of experiment: MIC broth microdilution, S. aureus GC1131 (Clinical). It is filed as cell-based. The following applies: MHBII, 18-22 hours at 35° C. As for the experimental part:
as §1, §2, §3

In assay [16] the test system is Staphylococcal aureus Smith M P. As to the kind of experiment: In vivo antibacterial evaluation, acute lethal infection in mice. The following applies: Mus musculus, iv, 168 h; single intraveneous dose; female CD-1 mice; 7 day survival ratios, 3 tests pooled; read-out: SIV* ED50.
In assay [17] the test system is E. faecalis GC4555 (ATCC Control). The assay is described as follows: MIC broth microdilution, E. faecalis GC4555 (ATCC Control). It is filed as cell-based. Particulars: MHBII, 18-22 hours at 35° C. As for the experimental part: as §1, §2, §3
The subject of assay [18] is S. pneumoniae* GC1894 (Clinical). As to the kind of experiment: MIC broth microdilution, S. pneumoniae GC1894 (Clinical). It is filed as cell-based. The following applies: 18-22 hours at 35° C. As for the experimental part:
as §1, §2, §3

The test system of assay [19] is E. coli GC4559 (parent GC4560). The assay is described as follows: MIC broth microdilution, E. coli GC4559 (parent GC4560). It is filed as cell-based. Particulars: MHBII, 18-22 hours at 35° C. As for the experimental part: as §1, §2, §3
The subject of assay [20] is C. albicans GC3066 ATCC (Control). As to the kind of experiment: MIC broth microdilution, C. albicans GC3066 ATCC (Control). It is filed as cell-based. Particulars: 18-22 hours at 35° C. As for the experimental part:
as §1, §2, §3

For assay [21], the system named is E. coli GC2270 (tet(M)). As to the kind of experiment: MIC broth microdilution, E. coli GC2270 (tet(M)). It is filed as cell-based. The following applies: MHBII, 18-22 hours at 35° C. As for the experimental part: as §1, §2, §3
Assay [22] deals with S. pneumoniae* GC4465 (Clinical). As to the kind of experiment: MIC broth microdilution, S. pneumoniae GC4465 (Clinical). It is filed as cell-based. The following applies: 18-22 hours at 35° C. How it is done: as §1, §2, §3
In assay [23] the test system is E. coli GC2203 (ATCC Control). The assay is described as follows: MIC broth microdilution, E. coli GC2203 (ATCC Control). It is filed as cell-based. Particulars: MHBII, 18-22 hours at 35° C. As for the experimental part: as §1, §2, §3

In brackets after ≈: the same amount, converted by molar mass. Like-named read-outs stand apart in the source and are kept apart here.

On to `CC(C)N(O)CC(=O)Nc1cc(N(C)C)c2c(c1O)C(=O)C1=C(O)[C@]3(O)C(=O)C(C(N)=O)=C(O)[C@@H](N(C)C)[C@@H]3C[C@@H]1C2` [Example 2, (4S,4aS,5aR,12aS)-4,7-bis(dimethylamino)-3,10,12,12a-tetrahydroxy-9-[(N-hydroxy-N-isopropylglycyl)amino]-1,11-dioxo-1,4,4a,5,5a,6,11,12a-octahydrotetracene-2-carboxamide], for which the “minimum inhibitory concentration (MIC)” value in [1] came out at 4; in assay [2], 16; in assay [3], 4; in assay [4], 8; in assay [5], 16; in [6], 2. Moreover, the “minimum inhibitory concentration (MIC)” value in [7] amounted to 0.25; in [9] it was 4; in assay [11], 2; in [12], 2; in assay [13], 1; in assay [14], 0.25. For the same molecule, the “minimum inhibitory concentration (MIC)” value in assay [15] is listed as 4; in assay [17], 1; in assay [18], 0.25; in assay [19] it was 8; in [20] it was >64; in assay [21], 4. Further, the “minimum inhibitory concentration (MIC)” value is recorded as 0.25 in assay [22] and 2 in assay [23]. In assay [8], this molecule showed an MIC of 1 µg/mL (≈ 1.7 µM). Besides, the ED50 was 18 mg/kg in assay [10] and 0.25 to 0.5 mg/kg in [16].
For `CN(C)c1cc(NC(=O)CN(O)C(C)(C)C)c(O)c2c1C[C@H]1C[C@H]3[C@H](N(C)C)C(O)=C(C(N)=O)C(=O)[C@@]3(O)C(O)=C1C2=O` [Example 3, (4S,4aS,5aR,12aS)-9-{[N-(tert-butyl)-N-hydroxyglycyl]amino}-4,7-bis(dimethylamino)-3,10,12,12a-tetrahydroxy-1,11-dioxo-1,4,4a,5,5a,6,11,12a-octahydrotetracene-2-carboxamide], the “minimum inhibitory concentration (MIC)” value was 4 in assay [1]; >64 in assay [2]; 4 in assay [3]; 8 in [4]; 16 in [5]; 8 in assay [6]. The “minimum inhibitory concentration (MIC)” value in assay [7] turned out to be 0.50; in [9], 8; in assay [11], 8; in [12] it was 4; in assay [13] it was 2; in [14] it was 1. In addition, the “minimum inhibitory concentration (MIC)” value is recorded as 4 in assay [15]; 4 in assay [17]; 1 in assay [18]; >64 in [19]; >64 in assay [20]; >64 in [21]. Besides, the “minimum inhibitory concentration (MIC)” value in [22] was 1; in assay [23] it was 32. This molecule also showed an MIC in [8] of 1 µg/mL (≈ 1.66 µM). For the same molecule, the values for the ED50 in assay [10] and in [16] were > 32 mg/kg and 2 to 4 mg/kg, respectively.
For `CN(C)c1cc(NC(=O)CNOC(C)(C)C)c(O)c2c1C[C@H]1C[C@H]3[C@H](N(C)C)C(O)=C(C(N)=O)C(=O)[C@@]3(O)C(O)=C1C2=O` [Example 4, (4S,4aS,5aR,12aS)-9-{[N-(tert-butoxy)glycyl]amino}-4,7-bis(dimethylamino)-3,10,12,12a-tetrahydroxy-1,11-dioxo-1,4,4a,5,5a,6,11,12a-octahydrotetracene-2-carboxamide], the “minimum inhibitory concentration (MIC)” value in assay [1] is listed as 1; in [2], 16; in assay [3] it was 1; in assay [4], 16; in assay [5] it was >64; in [6] it was 2. Besides, the “minimum inhibitory concentration (MIC)” value in assay [7] came to 0.12; in assay [9] it was 8; in assay [11], 1; in assay [12], 1; in assay [13], 0.50; in assay [14], 0.50. The “minimum inhibitory concentration (MIC)” value is listed as 1 in [15]; 1 in [17]; 0.25 in [18]; 16 in assay [19]; >64 in [20]; 8 in assay [21]. Also, the “minimum inhibitory concentration (MIC)” value in assay [22] came to 0.25; in assay [23], 8. In [8], this molecule displayed an MIC of 4 µg/mL (≈ 6.65 µM). Besides, the 50% effective dose (ED50) was 1.1 mg/kg in assay [10] and 0.25 to 1 mg/kg in assay [16].
